Where a SMILES comes first, the peptide text is derived from it. [ ]: non-standard residue; d: D form. Dopa = N[C@@H](Cc1ccc(O)c(O)c1)C(=O)O; Cha = N[C@@H](CC1CCCCC1)C(=O)O
Assays:
[1] = Raman spectroscopy of secondary structure of the peptides; type: physicochemical; settings: 1×PBS, 5 mg/mL, integrated area under Raman peak
Description: In one embodiment, the secondary structure of the IIZDoK peptide contains a larger amount of α-helix structure than DoIIZK and IIZKDo peptides that preferentially contain β-turn, as can be appreciated in the Raman spectroscopy signatures of the three peptides.
Raman spectroscopy measurements were performed on DoIIZK, IIZDoK and IIZKDo at 5 mg/mL concentration in 1×PBS buffer or on dry powder samples after deposition on CaF2 slide. Witec Alpha 300 RA confocal Raman spectrometer equipped with Andor CCD camera (DU970N thermoelectrically cooled at −75° C.) was used to perform the Raman measurements in backscattered configuration. The samples were excited through a 50× objective (Zeiss® LD EC Epiplan-Neofluar) with linearly polarized 532 nm wavelength excitation laser. For the analysis, the spectra were cosmic rays removed, baseline subtracted with a polynomial of 5th order, and averaged after normalization to the 1450 cm^−1 peak intensity. Several Voigt functions were fitted setting the peaks at 1653±3, 1663±3 and 1680±3 cm^−1, corresponding to α-helix, β-turn and unordered β-turn respectively, with a FWHM set to a max value of 25 cm^−1. An additional peak at about 1635 cm^−1 was introduced into the fitting to account for contributions from water, lysine and isoleucine Raman shifts.^11

Acropora fragments = assay: Coral fragments glued to a tile in sea water, selection of best glue; type: in vivo, Acropora spp.; settings: for survival rate of the coral fragments: after 3 days, tile in aquarium with running seawater; for time to detachment of glued fragments under water: DoIIZK: one of the fragments, IIZDoK: all fragments; for Survival after 3 days in the aquarium / Survival after attachment: number of Acropora fragments of n = 3
Description: In one embodiment, coral fragments were attached to a tile using DoIIZK, IIZDoK, IIZKDo as a glue. The tile, to which the coral fragments were attached, has a size 10×10 cm and was placed into a shallow aquarium supplied with running seawater.
In one embodiment, the survival rate of the coral fragments fixed with DoIIZK was 67%, whereas the survival rate glued with IIZDoK and IIZKDo were respectively 0% and 100%, after 3 days.
The different glues were prepared at the same concentration of 40 mg/mL for DoIIZK, IIZDoK and IIZKDo. Then, the coral fragments were adhered to the surface of the tiles by applying gentle pressure as following: triplicates in the first line with DoIIZK as a glue, second line with IIZDoK and last line with IIZKDo. The experiment setup is illustrated in FIG. 40. The tiles were afterwards placed underwater in a tank containing filtered sea water. One of the fragments that was glued with DoIIZK detached less than 15 minutes after we placed the tile under water and all of the fragments that were glued with IIZDoK detached around 30 minutes after they have been placed under water.

[2] = test system: mouse myoblast cells (C2C12); assay: Cytocompatibility of peptide nanogels, 3D culture, MTT and live/dead staining; type: cell-based
Description: In one embodiment, cytocompatibility of the peptide nanogels was evaluated using mouse myoblast cells (C2C12). After 24 hours of incubation, cell proliferation was tested with DoIIZK, IIZDoK, IIZKDo, IIZ(KDo)2 and IIZ(KDo)3 at a concentration of 3 mg/mL to evaluate biocompatibility. The MTT (3-(4,5-dimethylthiazol-2-yl)-2,5-diphenyltetrazolium bromide) assay was used in order to quantify the number of viable cells. In one embodiment, a standard curve for a known number of cells was also plotted. In one embodiment, the test results were compared to the positive control 2D culture. A positive indication of cytocompatibility would be the survival of the cells following incubation with the peptides. For comparison, peptides DoIIZK, IIZDoK, IIZKDo, IIZ(KDo)2 and IIZ(KDo)3 were tested as part of the study. The cytocompatibilty of all peptides tested was evaluated by quantifying the survival cells by visualising the live/dead cells using calcein AM and Ethidium bromide staining.
Poli-D Lysine (PDL) was used for 2D control. The scalebar in FIG. 35 is 200 μm. Cytocompatibility of all peptides was evaluated by quantifying the survival cells by visualising the live/dead cells using calcein AM and Ethidium homodimer staining. The live cells are stained green by calcein AM, while the dead cells are stained red by Ethidium homodimer.
For mouse myoblast cells (C2C12) culture expansion, C2C12 cells were cultured either in a T175 or T75 culture flask in complete DMEM media (10% FBS and 1% P/S). The cells were placed in a humidified incubator at 37° C., with 95% air and 5% CO2. Then they were subcultured using trypsin at approximately 80% confluence. Fresh culture media was added every 48 h to each well, after removing the previous media.
For 3D culture of mouse myoblast cells in peptide hydrogels and cell viability assay, C2C12 cells were encapsulated in peptide hydrogels in a 96-well plate.^61 Briefly, peptide solutions DopaIIZK, IIZDopaK, IIZKDopa (3 mg/mL) were added to 40 μL/well. Mouse myoblast cells (30,000 cells/well) that were re-suspended in 2×PBS were then, mixed gently with the peptide solutions. The gelation time was 1-3 min for all 5 peptides. Subsequently, the culture medium was added to the wells.
The viability of 3D cultured cells was assessed using the LIVE/DEAD Viability/Cytotoxicity Kit (ThermoFisher®, USA)^11. Calcein acetoxymethyl ester (Calcein-AM) is used to detect viable cells and ethidium homodimer-I (EthD-I) is used to detect dead cells. Briefly, staining with 2 μM of Calcein-AM and 4 μM of EthD-1 is performed after washing with Dulbecco's phosphate-buffered saline (D-PBS). After 30 minutes incubation, the staining solution was discarded, and 1×D-PBS was added to each well before imaging. Stained cells were imaged with an inverted confocal microscope (Zeiss® LSM 710 Inverted Confocal Microscope, Germany) or ZEISS® fluorescent microscope.

[3] = Peptide gelation study by vial inversion test (CGC and gelation time); type: physicochemical; settings: 1×PBS; for gelation time: vial inversion test
Description: The critical gelation concentration (CGC) and gelation time of hydrogels formed by the catechol peptides in 1×PBS determined by vial inversion test are summarized below:
The peptide powder was dissolved in 0.90 mL of MilliQ® water and vortexed until fully dissolved. Then, 0.10 mL of 10×PBS buffer were added to the peptide solution to reach a final concentration of 1×PBS. Gelation of the solution in the vial was observed by vial inversion method. The time and critical gelation concentration (CGC) at which each peptide formed a hydrogel were recorded.

[4] = glue 40 mg/mL, tile in filtered sea water

In the case of `CC[C@H](C)[C@H](NC(=O)[C@H](Cc1ccc(O)c(O)c1)NC(C)=O)C(=O)N[C@H](C(=O)N[C@@H](CC1CCCCC1)C(=O)N[C@@H](CCCCN)C(N)=O)[C@@H](C)CC` [DoIIZK, Ac-Dopa-Ile-Ile-Cha-Lys-NH2] (Ac-[Dopa]II[Cha]K-NH2), the “Disordered structure Area %” value [1] is reported as 1687; 22%, the “α-helix Area %” value [1] is reported as 1650; 13% and the “β-turn Area %” value [1] is reported as 1665; 65%. For the same compound, the “survival rate of the coral fragments” value (Acropora fragments) was 67%, the “time to detachment of glued fragments under water” value (Acropora fragments; [4]) was “less than 15 minutes” and the “Survival after 3 days in the aquarium” value (Acropora fragments) was 2. For the same compound, the Survival after attachment (Acropora fragments) was 3, the “biocompatibility with C2C12 cells” value [2] was “biocompatible” and the “cell viability / toxicity” value [2] was “good viability”. For the same compound, the “metabolic activity of cells versus 2D cultures” value [2] was “consistently comparable to 2D cultures”, the “time cells stay metabolically active in nanogel” value [2] was “metabolically active for up to day 21” and the “critical gelation concentration (CGC)” value [3] was 2 mg/mL. The gelation time ([3]; peptide 1 mg/mL) was “Not gelating”, the gelation time ([3]; peptide 2 mg/mL) was 45 min and the gelation time ([3]; peptide 2 mg/mL, listed as DopaIIZK) was greater than 45 min. For the same compound, the gelation time ([3]; peptide 3 mg/mL) was greater than 30 min, the gelation time ([3]; peptide 4 mg/mL) was greater than 20 min and the gelation time ([3]; peptide 5 mg/mL) was greater than 10 min.
For `CC[C@H](C)[C@H](NC(C)=O)C(=O)N[C@H](C(=O)N[C@@H](CC1CCCCC1)C(=O)N[C@@H](Cc1ccc(O)c(O)c1)C(=O)N[C@@H](CCCCN)C(N)=O)[C@@H](C)CC` [IIZDoK, Ac-Ile-Ile-Cha-Dopa-Lys-NH2] (Ac-II[Cha][Dopa]K-NH2), the “Disordered structure Area %” value [1] was 1690; 16%, the “α-helix Area %” value [1] was 1656; 40% and the “β-turn Area %” value [1] was 1666; 44%. For the same compound, the “survival rate of the coral fragments” value (Acropora fragments) was 0%, the “time to detachment of glued fragments under water” value (Acropora fragments; [4]) was “around 30 minutes” and the “Survival after 3 days in the aquarium” value (Acropora fragments) was 0. For the same compound, the Survival after attachment (Acropora fragments) was 3, the “biocompatibility with C2C12 cells” value [2] was “biocompatible” and the “cell viability / toxicity” value [2] was “good viability”. The “metabolic activity of cells versus 2D cultures” value [2] was “consistently comparable to 2D cultures”, the “time cells stay metabolically active in nanogel” value [2] was “metabolically active for up to day 21” and the “critical gelation concentration (CGC)” value [3] was 4 mg/mL. The gelation time ([3]; peptide 1 mg/mL) was “Not gelating”, the gelation time ([3]; peptide 2 mg/mL) was “Not gelating” and the gelation time ([3]; peptide 3 mg/mL) was “Not gelating”. The gelation time ([3]; peptide 4 mg/mL) was 80 min, the gelation time ([3]; peptide 4 mg/mL, listed as IIZDopaK) was greater than 80 min and the gelation time ([3]; peptide 5 mg/mL) was greater than 75 min.
For `CC[C@H](C)[C@H](NC(C)=O)C(=O)N[C@H](C(=O)N[C@@H](CC1CCCCC1)C(=O)N[C@@H](CCCCN)C(=O)N[C@@H](Cc1ccc(O)c(O)c1)C(N)=O)[C@@H](C)CC` [IIZKDo, Ac-Ile-Ile-Cha-Lys-Dopa-NH2] (Ac-II[Cha]K[Dopa]-NH2), the “Disordered structure Area %” value [1] was 1690; 18%, the “α-helix Area %” value [1] was 1658; 18% and the “β-turn Area %” value [1] was 1666; 64%. The “survival rate of the coral fragments” value (Acropora fragments) was 100%, the “fragments sticking to the tile after 17 days” value (Acropora fragments; glue 40 mg/mL, tile in filtered sea water, triplicates) was “still all sticking to the tile after 17 days” and the “Survival after 3 days in the aquarium” value (Acropora fragments) was 3. The Survival after attachment (Acropora fragments) was 3, the “biocompatibility with C2C12 cells” value [2] was “biocompatible” and the “cell viability / toxicity” value [2] was “good viability”. For the same compound, the “metabolic activity of cells versus 2D cultures” value [2] was “consistently comparable to 2D cultures”, the “time cells stay metabolically active in nanogel” value [2] was “metabolically active for up to day 21” and the “critical gelation concentration (CGC)” value [3] was 3 mg/mL. For the same compound, the gelation time ([3]; peptide 1 mg/mL) was “Not gelating”, the gelation time ([3]; peptide 2 mg/mL) was “Not gelating” and the gelation time ([3]; peptide 3 mg/mL) was 30 min. It also gave a gelation time ([3]; peptide 3 mg/mL, listed as IIZKDopa) greater than 30 min, a gelation time ([3]; peptide 4 mg/mL) greater than 21 min and a gelation time ([3]; peptide 5 mg/mL) greater than 16 min.
